From patent publication US5028604A, “Condensed benzene derivative” (Zeria Pharmaceutical Co., Ltd., priority 1988, dated 1991) come the findings set out here.

Like-named read-outs stand apart in the source and are kept apart here.

The target of test [1] is T1, prolyl endopeptidase from canine brain (Canis lupus familiaris, UniProt A0A8I3N6C8).
T1 construct: A prolyl endopeptidase was prepared from canine brains; from tissue; host or cells: canine brain
In words: Inhibitory Activity Against Prolyl Endopeptidase From Brain. The format is biochemical. Particulars: 37° C., pH 7.0, substrate benzyloxycarbonylglycylprolylparanitroanilide; read-out: Inhibition Potency, IC50. The procedure: Following buffer solutions were used for the measurement.
Buffer A: 20 mM Tris-HCl buffer (pH 7.0)
Buffer B: Buffer A containing 0.1% gelatin, 1 mM EDTA, and 1 mM 2-mercaptoethanol
This solution (50 μl) was added to 940 μl of the Buffer A, and the solution thus obtained was left at 37° C. for 10 minutes (This solution is herein referred to as "Enzyme solution"). A mixed solution of 50 μl of the Buffer B and 940 μl of Buffer A was used as a "Correction solution".
A test compound was dissolved in dimethylsulfoxide, and 10 μl of the solution was added to the Enzyme solution. The mixture was stirred and allowed to stand at 37° C. for 10 minutes. Separately, 10 μl of dimethylsulfoxide was added to the Enzyme solution and was processed in the same manner. The solution thus obtained was served as a "Control solution". The same procedure was carried out on the Correction solution.
One hundred (100) μl of 2.5 mM benzyloxycarbonylglycylprolylparanitroanilide, which was dissolved with 40% dioxane, was added to each of the above 3 solutions, i.e., the Enzyme solution with the test compound, Control solution, and Correction solution, and the reaction was carried out at 37° C. for 10 minutes.
Enzyme activities were determined by subtracting the blank value, i.e., the absorbance measured on the Correction solution, from the absorbance of each of the sample solutions and of the Control solution.

A further test has as its system ICR male mice. In words: Anti-Hypoxic Activity (survival time in 4% O2 + 96% N2). The format is in vivo. Particulars: Mus musculus, ip. The procedure:
Groups of ICR male mice (Charles River Co.), age 4 to 5 weeks, each group consisting of 10 mice and each mouse having been fasted for 24 hours, were used for the test. Mice were placed in a transparent desiccator (diameter: 19 cm, height: 30 cm) made of synthetic resin and having 2 valves, one at the upper portion and the other at the lower portion, for replacing the gas therein. A mixed gas (4% O2 +96% N2) was fed from the upper valve at a rate of 10 l/min to measure the period of time until respiratory arrest took place for each mouse. The time measured was taken as the survival time.
Each tested compound suspended in an solvent was intraperitoneally administered 30 minutes before the start of the mixed gas feeding. A group of mice to which only the solvent was intraperitoneally administered was used as a control.
The anti-hypoxic activity was determined according to the following formula, [formula]

In a further test the test system is CD female rats. Nature of the test: Anti-Amnesic Activity (passive avoidance, electric convulsive shock). The class given is in vivo. Particulars: 30 mg/kg P.O., one hour before acquisition trial; ECS; retention trial at 24 hours; solvent + sham 133.0, solvent + ECS 0.8. The procedure: Compounds of this invention were checked with respect to their abilities to prevent the inhibition of long-term memory fixation by electric convulsive shock (ECS). CD female rats (Charles River), weighed 160-180 g were used for the test. One hour after the administration of a compound of this invention, the acquisition trial according to the passive avoidance training was performed on the rats. A foot shock was given to the rats when they entered into a dark room. Immediately after that an amnesic treatment by ECS or a sham amnesic treatment was performed. Twenty four (24) hours after the acquisition trial the retention trial was performed. Latency of the […] entering into a dark room was measured.

Where [2] appears, read: read-out: Anti-hypoxic Activity.
Setting [3] is: 100 mg/kg i.p., 30 minutes before mixed gas, control = 100, read-out: Anti-hypoxic Activity.

T1 sequence (A0A8I3N6C8 1-710): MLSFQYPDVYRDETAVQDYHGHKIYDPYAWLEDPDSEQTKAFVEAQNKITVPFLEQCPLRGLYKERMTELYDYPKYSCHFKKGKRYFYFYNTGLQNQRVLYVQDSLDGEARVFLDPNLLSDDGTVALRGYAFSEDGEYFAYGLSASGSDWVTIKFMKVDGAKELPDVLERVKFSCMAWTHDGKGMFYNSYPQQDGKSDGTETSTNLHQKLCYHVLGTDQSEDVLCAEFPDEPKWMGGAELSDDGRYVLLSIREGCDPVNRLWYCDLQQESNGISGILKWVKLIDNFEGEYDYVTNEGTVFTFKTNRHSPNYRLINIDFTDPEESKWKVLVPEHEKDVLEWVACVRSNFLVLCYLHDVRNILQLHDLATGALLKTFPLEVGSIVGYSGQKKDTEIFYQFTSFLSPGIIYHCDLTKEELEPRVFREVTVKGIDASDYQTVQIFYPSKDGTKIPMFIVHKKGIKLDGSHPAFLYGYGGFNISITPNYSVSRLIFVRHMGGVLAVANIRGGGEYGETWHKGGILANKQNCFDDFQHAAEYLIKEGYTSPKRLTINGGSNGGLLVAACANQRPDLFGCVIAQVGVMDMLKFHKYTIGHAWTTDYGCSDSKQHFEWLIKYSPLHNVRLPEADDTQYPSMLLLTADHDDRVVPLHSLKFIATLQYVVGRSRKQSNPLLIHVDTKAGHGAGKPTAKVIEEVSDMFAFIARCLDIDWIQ

In general, IC50 refers to the concentration needed to halve the response being measured. Turning to `O=C(C1CSCCN1C(=O)CC1Cc2ccccc2C1)N1CCSC1` (racemic) [Example 5, 3-[4-(2-indanylacetyl)-DL-1,4-thiazan-3-ylcarbonyl]thiazolidine], the IC50 in test [1] was found to be 0.022 µM.
Regarding `COc1ccc(C(=O)N2CCCC2=O)cc1` [Aniracetam, reference compound], the IC50 in test [1] is > 1000 µM. In addition, in the test on ICR male mice (setting [2]), the response vs control in vivo at 100 mg/kg stood at 115% and the response vs control in vivo at 300 mg/kg turned out to be 159%.
For `CC(C)(CO)[C@@H](O)C(=O)NCCCC(=O)O` [Calcium hopantenate, reference compound], the response vs control in vivo at 250 mg/kg in the test with ICR male mice (250 mg/kg i.p., 30 minutes before mixed gas, control = 100) came to 135%.
On to `O=C([C@@H]1CSCN1C(=O)CC1Cc2ccccc2C1)N1CCSC1` [Example 1, 3-[3-(2-indanylacetyl)-L-thioprolyl]thiazolidine], for which the response vs control in vivo at 100 mg/kg with ICR male mice (setting [3]) came out at 131%. Moreover, the “Latency to entering into a dark room” value in the test with CD female rats amounted to 77.0 s.
Turning to `O=C([C@@H]1CSCN1C(=O)CC1Cc2ccccc2C1)N1CCCC1` [Example 2, 1-[3-(2-indanylacetyl)-L-thioprolyl]pyrrolidine], the response vs control in vivo at 100 mg/kg in the test on ICR male mice (setting [3]) stood at 127%.
As to `O=C([C@@H]1CCCN1C(=O)CC1Cc2ccccc2C1)N1CCCC1` [Example 4, 1-[1-(2-indanylacetyl)-L-prolyl]pyrrolidine], the response vs control in vivo at 100 mg/kg in the test with ICR male mice (setting [3]) came to 141%.
For `O=C([C@@H]1CCCCN1C(=O)CC1Cc2ccccc2C1)N1CCCC1` [Example 10, 1-[1-(2-indanylacetyl)-L-piperidine-2ylcarbonyl]pyrrolidine], the IC50 in test [1] is 0.049 µM.
With `O=C([C@H]1CCCCN1C(=O)CC1Cc2ccccc2C1)N1CCCC1` [Example 11, 1-[1-(2-indanylacetyl)-D-piperidine-2-ylcarbonyl]pyrrolidine], the response vs control in vivo at 50 mg/kg in the test with ICR male mice (50 mg/kg i.p., 30 minutes before mixed gas, control = 100) was 141%.
As to `O=C(O)[C@@H]1CCCN1C(=O)[C@@H]1CCCN1C(=O)CC1Cc2ccccc2C1` [Example 17, 1-[1-(2-indanylacetyl)-L-prolyl]-L-proline], the response vs control in vivo at 100 mg/kg with ICR male mice (setting [3]) stood at 137%.
In the case of `O=C([C@@H]1CCCN1C(=O)CC1=Cc2ccccc2C1)N1CCSC1` [Example 18, 3-[1-(2-indenylacetyl)-L-prolyl]thiazolidine], the IC50 in test [1] was 0.043 µM.
Turning to `O=C([C@@H]1CCCN1C(=O)CC1=Cc2ccccc2C1)N1CCCC1` [Example 19, 1-[1-(2-indenyl-acetyl)-L-prolyl]pyrrolidine], the response vs control in vivo at 100 mg/kg with ICR male mice (setting [3]) amounted to 155%.
Consider `O=C([C@@H]1CCCN1C(=O)CC1CCc2ccccc2C1)N1CCCC1` (stereo partly drawn) [Example 24, 1-[1-(1,2,3,4-tetrahydronaphthalen-2-ylacetyl)-L-prolyl]pyrrolidine], for which the response vs control in vivo at 100 mg/kg with ICR male mice (setting [3]) was 235%.
`O=C([C@@H]1CSCN1C(=O)CCCC1Cc2ccccc2C1)N1CCCC1` [Example 26, 1-{3-[4-(indan-2-yl)butanoyl]-L-thioprolyl}pyrrolidine]: the response vs control in vivo at 100 mg/kg in the test on ICR male mice (setting [3]) was found to be 291%.
With `O=C[C@@H]1CCCN1C(=O)[C@@H]1CCCN1C(=O)CC1=Cc2ccccc2C1` [Example 42, 1-[1-(2-indenylacetyl)-L-prolyl]-L-prolinal], in test [1], the IC50 was 0.0013 µM. In addition, the response vs control in vivo at 100 mg/kg in the test on ICR male mice (setting [3]) was 168%.
For `COC1=C(OC)C(=O)C(CCCCCCCCCCO)=C(C)C1=O` [Idebenone, reference compound], the response vs control in vivo at 100 mg/kg with ICR male mice (setting [3]) stood at 140%.
